Results: patent US9777005B2 (Takeda Pharmaceutical Company Limited, priority 2012, dated 2017)

Target: T1, human M1 receptor (hCHRM1) (Homo sapiens, UniProt P11229)
T1 construct: expressed in transfected cells; host or cells: CHO-K1
T1 sequence (P11229 1-460): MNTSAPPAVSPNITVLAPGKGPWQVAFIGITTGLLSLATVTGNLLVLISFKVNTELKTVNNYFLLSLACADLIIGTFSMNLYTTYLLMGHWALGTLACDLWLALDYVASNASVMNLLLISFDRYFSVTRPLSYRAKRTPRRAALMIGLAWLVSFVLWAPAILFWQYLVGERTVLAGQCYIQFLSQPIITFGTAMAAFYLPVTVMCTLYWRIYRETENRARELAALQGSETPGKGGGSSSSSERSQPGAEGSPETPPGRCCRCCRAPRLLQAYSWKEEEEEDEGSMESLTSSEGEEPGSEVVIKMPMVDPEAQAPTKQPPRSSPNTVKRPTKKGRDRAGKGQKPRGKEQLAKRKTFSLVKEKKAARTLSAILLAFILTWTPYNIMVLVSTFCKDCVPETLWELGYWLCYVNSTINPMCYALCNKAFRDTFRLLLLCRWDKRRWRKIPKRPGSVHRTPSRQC
Assay: Measurement of M1 receptor positive allosteric modulator (M1PAM) activity, calcium fluorescence (FLIPRtetra) in CHO-K1 cells in the presence of acetylcholine at EC20
Assay type: cell-based
Conditions: in the presence of acetylcholine at EC20 (final 0.6 nM), CHO-K1 cells expressing hCHRM1; for EC50: inflection point of M1PAM activity, read-out: IP value; for activity (%) at 10 μM: test compound 10 μM
Experimental: Measurement of M1 Receptor Positive Allosteric Modulator (M1PAM) Activity
The activity of a test compound in the presence of acetylcholine at EC20 concentration (final concentration 0.6 nM), which affords an action corresponding to 20% of the maximum activity, was measured as PAM activity. The method is as follows. CHO-K1 cells forcibly expressing a human M1 receptor (hCHRM1) were plated on a 384-well black clear bottom plate (BD Falcon) at 5,000 cells/well, and cultured in an incubator at 37° C., 5% CO2 for 1 day. The medium in the cell plate was removed, and assay buffer A (Recording medium (DOJINDO LABORATORIES), 0.1% BSA (Wako Pure Chemical Industries, Ltd.), 2.5 μg/mL Fluo-4 AM (DOJINDO LABORATORIES), 0.08% Pluronic F127 (DOJINDO LABORATORIES), 1.25 mM probenecid (DOJINDO LABORATORIES)) containing a calcium indicator was added at 30 μL/well. The cells were left standing in the incubator at 37° C., 5% CO2 for 30 min, and further left standing at room temperature for 30 min. A test compound prepared by diluting with assay buffer B (HBSS (Invitrogen), 20 mM HEPES (Invitrogen), 0.1% BSA) containing 2.4 nM acetylcholine was added at 10 μL/well, and the fluorescence was measured by FLIPRtetra (Molecular Devices) for 1 min every 1 second. With the definition that the amount of change in the fluorescence on addition of acetylcholine (final concentration 1 μM) is 100% and that on addition of DMSO instead of a test compound is 0%, the activity (%) of the test compound and the inflection point in the concentration-dependent curve of the test compound were calculated as IP values.

SMILES	EC50 [nM]	activity (%) at 10 μM [%]
Cn1cc(-c2ccc(CN3Cc4ccnc(Oc5cc(C(C)(C)O)ccc5F)c4C3=O)cc2)cn1 [Example 308, 4-(2-fluoro-5-(2-hydroxypropan-2-yl)phenoxy)-2-(4-(1-methyl-1H-pyrazol-4-yl)benzyl)-1,2-dihydro-3H-pyrrolo[3,4-c]pyridin-3-one]	44	99
Cc1cc(-c2ccc(CN3Cc4cccc(Oc5c(F)cccc5C#N)c4C3=O)cc2)ccn1 [Example 72, 3-fluoro-2-((2-(4-(2-methylpyridin-4-yl)benzyl)-3-oxo-2,3-dihydro-1H-isoindol-4-yl)oxy)benzonitrile]	88	102
Cc1cc(F)c(Oc2nccc3c2C(=O)N(Cc2ccc(-n4cnc(C)c4)cc2)C3)c(F)c1 [Example 428, 4-(2,6-difluoro-4-methylphenoxy)-2-(4-(4-methyl-1H-imidazol-1-yl)benzyl)-1,2-dihydro-3H-pyrrolo[3,4-c]pyridin-3-one]	14	106
O=C1c2c(cccc2O[C@H]2CCCC[C@@H]2O)CN1Cc1ccc(-c2ccn[nH]2)cc1 (relative stereo) [Example 31, 7-((trans-2-hydroxycyclohexyl)oxy)-2-(4-(1H-pyrazol-5-yl)benzyl)isoindolin-1-one]	8.5	105
CNC(=O)c1ccc(CN2Cc3ccnc(Oc4ccc(C5CC5)cc4F)c3C2=O)cn1 [Example 454, 5-((4-(4-cyclopropyl-2-fluorophenoxy)-3-oxo-1,3-dihydro-2H-pyrrolo[3,4-c]pyridin-2-yl)methyl)-N-methylpyridine-2-carboxamide]	30	86
O=C1c2c(ccnc2O[C@@H]2CCCC[C@H]2O)CN1Cc1cccc(F)c1 (single isomer, unassigned) [Example 321, 2-(3-fluorobenzyl)-4-((trans-2-hydroxycyclohexyl)oxy)-1,2-dihydro-3H-pyrrolo[3,4-c]pyridin-3-one]	32	104
COCc1ccc(F)c(Oc2nccc3c2C(=O)N(Cc2ccc(-c4ccnc(C)c4)cc2)C3)c1 [Example 291, 4-(2-fluoro-5-(methoxymethyl)phenoxy)-2-(4-(2-methylpyridin-4-yl)benzyl)-1,2-dihydro-3H-pyrrolo[3,4-c]pyridin-3-one]	34	91
O=C1c2c(ccnc2O[C@H]2CCCC[C@@H]2O)CN1Cc1cccs1 (relative stereo) [Example 399, 4-((trans-2-hydroxycyclohexyl)oxy)-2-(2-thienylmethyl)-1,2-dihydro-3H-pyrrolo[3,4-c]pyridin-3-one]	97	94
O=C1c2c(ccnc2OCC2CCCO2)CN1Cc1ccc(-c2cn[nH]c2)cc1 (stereo not shown) [Example 286, 2-(4-(1H-pyrazol-4-yl)benzyl)-4-((tetrahydrofuran-2-yl)methoxy)-1,2-dihydro-3H-pyrrolo[3,4-c]pyridin-3-one]	13	99
NC(=O)c1ccc(CN2Cc3cccc(O[C@H]4CCCC[C@@H]4O)c3C2=O)cc1 (relative stereo) [Example 34, 4-((7-((trans-2-hydroxycyclohexyl)oxy)-1-oxo-1,3-dihydro-2H-isoindol-2-yl)methyl)benzamide]	10	92
O=C1c2c(cccc2O[C@@H]2COCC[C@H]2O)CN1Cc1ccc(Br)cc1 (single isomer, unassigned) [Example 271, 1,5-anhydro-2-O-(2-(4-bromobenzyl)-3-oxo-2,3-dihydro-1H-isoindol-4-yl)-4-deoxy-threo-pentitol]	130	97
Cc1cc(-c2ccc(CN3Cc4ccnc(Oc5c(F)cc(C#N)cc5F)c4C3=O)cc2)ccn1 [Example 376, 3,5-difluoro-4-((2-(4-(2-methylpyridin-4-yl)benzyl)-3-oxo-2,3-dihydro-1H-pyrrolo[3,4-c]pyridin-4-yl)oxy)benzonitrile]	6.9	106
Cc1cc(-c2ccc(CN3Cc4ccnc(Oc5ccc(C(F)(F)F)cc5C)c4C3=O)cc2)cnn1 [Example 407, 2-(4-(6-methylpyridazin-4-yl)benzyl)-4-(2-methyl-4-(trifluoromethyl)phenoxy)-1,2-dihydro-3H-pyrrolo[3,4-c]pyridin-3-one]	74	89
Cn1cc(-c2ccc(CN3Cc4ccnc(OCc5ccccc5F)c4C3=O)c(F)c2)nn1 [Example 327, 4-((2-fluorobenzyl)oxy)-2-(2-fluoro-4-(1-methyl-1H-1,2,3-triazol-4-yl)benzyl)-1,2-dihydro-3H-pyrrolo[3,4-c]pyridin-3-one]	6.5	98
Cn1cc(-c2ccc(CN3Cc4cccc(Oc5c(F)cc(N)cc5Cl)c4C3=O)cc2)cn1 [Example 11, 7-(4-amino-2-chloro-6-fluorophenoxy)-2-(4-(1-methyl-1H-pyrazol-4-yl)benzyl)isoindolin-1-one]	65	102
Cn1cc(-c2ccc(CN3Cc4cccc(Oc5ccc(C(O)C(F)(F)F)cc5F)c4C3=O)nc2)cn1 (stereo not shown) [Example 389, 7-(2-fluoro-4-(2,2,2-trifluoro-1-hydroxyethyl)phenoxy)-2-((5-(1-methyl-1H-pyrazol-4-yl)pyridin-2-yl)methyl)isoindolin-1-one]	32	93

More lines, now with the values ahead:

EC50 [nM]	activity (%) at 10 μM [%]	SMILES
10	99	Cc1nn(C)cc1-c1ccc(CN2Cc3ccnc(O[C@H]4CCC[C@@H]4O)c3C2=O)cc1 (relative stereo) [Example 227, 2-(4-(1,3-dimethyl-1H-pyrazol-4-yl)benzyl)-4-((trans-2-hydroxycyclopentyl)oxy)-1,2-dihydro-3H-pyrrolo[3,4-c]pyridin-3-one]
29	114	Cn1ccc(-c2ccc(CN3Cc4ccnc(OCC5CCCO5)c4C3=O)cc2)n1 (stereo not shown) [Example 79, 2-(4-(1-methyl-1H-pyrazol-3-yl)benzyl)-4-((tetrahydrofuran-2-yl)methoxy)-1,2-dihydro-3H-pyrrolo[3,4-c]pyridin-3-one]
8.9	97	Cn1cc(-c2ccc(CN3Cc4ncnc(Oc5ccc(C(F)(F)F)cc5F)c4C3=O)cc2)cn1 [Example 306, 4-(2-fluoro-4-(trifluoromethyl)phenoxy)-6-(4-(1-methyl-1H-pyrazol-4-yl)benzyl)-6,7-dihydro-5H-pyrrolo[3,4-d]pyrimidin-5-one]
39	96	Cc1nn(C)cc1-c1ccc(CN2Cc3ccnc(Oc4cc(C(C)(C)O)ccc4F)c3C2=O)cc1 [Example 312, 2-(4-(1,3-dimethyl-1H-pyrazol-4-yl)benzyl)-4-(2-fluoro-5-(2-hydroxypropan-2-yl)phenoxy)-1,2-dihydro-3H-pyrrolo[3,4-c]pyridin-3-one]
7.6	99	Cc1nn(C)cc1-c1ccc(CN2Cc3ccnc(OCC4CCCCO4)c3C2=O)cc1 (stereo not shown) [Example 252, 2-(4-(1,3-dimethyl-1H-pyrazol-4-yl)benzyl)-4-((tetrahydro-2H-pyran-2-yl)methoxy)-1,2-dihydro-3H-pyrrolo[3,4-c]pyridin-3-one]
6.1	117	Cc1nn(C)cc1-c1ccc(CN2Cc3ccnc(OCC4CCCO4)c3C2=O)c(F)c1 (stereo not shown) [Example 229, 2-(4-(1,3-dimethyl-1H-pyrazol-4-yl)-2-fluorobenzyl)-4-((tetrahydrofuran-2-yl)methoxy)-1,2-dihydro-3H-pyrrolo[3,4-c]pyridin-3-one]
21	89	Cc1nn(C)cc1-c1ccc(CN2Cc3ncnc(OC4CCC4)c3C2=O)cc1 [Example 323, 4-(cyclobutyloxy)-6-(4-(1,3-dimethyl-1H-pyrazol-4-yl)benzyl)-6,7-dihydro-5H-pyrrolo[3,4-d]pyrimidin-5-one]
